Experiments:
Assay type in all cases: in vivo
[1] = test system: Caki-1 human renal cancer cells; assay: Caki-1 renal tumour xenograft in SCID mice, SEQ ID NO:1 and chemotherapeutics; details: Caki (renal); Mouse CD-1
Experimental: Caki-1 human renal cancer cells (1×10^7 cells in […] of PBS) were subcutanteously injected into the right flank of 6-7 weeks old female SCID mice. After the size of tumour reached an approximate volume of 200 mm^3, 7 days post tumour cell injection, SEQ ID NO:1 was administered by bolus infusion into the tail vein every other day at 10 mg/kg. Control animals received saline alone for the same period. The antitumour effect of SEQ ID NO:1 was further compared to that of two chemotherapeutic agents: 5-FU and vinblastine. 5-FU was administered intraperitoneally at days 7-13, 21-27 and 35-36 with a dose of 13 mg/kg/day, while vinblastin was administered intraperitoneally at days 7, 14, 21, 28 and 35 at a dose of 0.6 mg/kg/week. Antitumour effects of each of these compounds were further compared to those of SEQ ID NO:1 in combination with 5-FU or with vinblastin. The two chemotherapeutic agents were applied as described above, one hour after the treatments with SEQ ID NO:1 when combination treatments occurred on the same day. All treatments were stopped at day 36. A day after the last treatment, tumours were excised from the animals and their weights were measured.

[2] = test system: Caki-1 human renal carcinoma; assay: Caki-1 renal tumour xenograft in SCID mice, SEQ ID NO:1 and interferon alpha
Experimental: (§1) Cell Line: Human renal carcinoma cell line (Caki-1) was grown as monolayer culture in Minimum essential medium (α-MEM) supplemented with 10% fetal bovine serum (FEBS), 0.1 mM non-essential amino acid, 1.0 mM sodium pyruvate, 100 U/ml penicillin, 100 μg/ml streptomycin and 0.25 μg/ml amphotericin B and 2 mM L-alanyl-L-glutamine at 37° C. in an atmosphere of 5% CO2 in air. The tumour cells were routinely subcultured twice weekly by trypsin-EDTA treatment. The cells were harvested from subconfluent logarithmically growing culture by treatment with trypsin-EDTA and counted for tumour inoculation.
(§2) Tumour Inoculation: An acclimation period of at least 7 days was allowed between animal receipt and commencement of tumour inoculation. When the female SCID mice were 6-7 weeks of age (20-25 g), each mouse was subcutaneously (s.c.) injected with 5×10^6 Caki-1 human renal carcinoma cells in 0.1 ml of PBS at the right flank of the mice to induce tumour growth.
Dose-Preparation and Treatment: The dose for SEQ ID NO:1 was formulated using the following procedure. From a concentrated stock solution (usually prepared in ddH2O at a concentration of 50 mg/ml and kept at −80° C.), SEQ ID NO:1 was diluted with saline to achieve a final target concentration of 1 or 2.5 mg/ml on the first day of dosing. Enough SEQ ID NO:1 was diluted so that the compound could be administered by bolus infusion into the tail vein every other day for the duration of the experiment. Recombinant interferon alfa-2b (Intron A™) was utilized according to the dose and treatment schedules below. The treatments were started 7 days after the tumour cell inoculation when the tumour size reached an approximate volume of 125 mm^3. Each treatment group contained 10 tumour-bearing mice. Routes of administration are indicated as follows: intravenous (i.v.) and intratumoural (i:t.).
Groups and Treatments: The following treatment groups were evaluated: • 1. Saline treated group-1: saline 0.1 ml/mouse/48 hours, i.v., n=10 • 2. Saline treated group-2: saline 0.05 ml/mouse/5 days/week, i.t., n=10 • 3. […] Intron A 10^3 unit/5 days/week treated group: 10^3 unit Intron A in 0.05 ml saline, i.t., n=10 • 6. Intron A 10^5 unit/5 days/week treated group: 10^5 unit Intron A in 0.05 ml saline, i.t., n=10 • 7. SEQ ID NO:1 1 mg/kg Plus Intron A 10^3 treated group: “3+5”, n=10 • 8. SEQ ID NO:1 1 mg kg Plus Intron A 10^5 treated group: “3+6”, n=10 • 9. SEQ ID NO:1 2.5 mg/kg Plus Intron A […], n=10 • 10. SEQ ID NO:1 2.5 mg/kg Plus Intron A 10^5 treated group: “4+6”, n=10
Mice received 25 treatments with SEQ ID NO:1 and 30 treatments with Intron A. The dosing schedule for Intron A was: treatment with Intron A for 3 consecutive weeks, 1 week off, and treatment with Intron A again for another 3 consecutive weeks. The dosing schedule for SEQ ID NO:1 was treatment with SEQ ID NO:1 every other day for the duration of the experiment.
(§3) Endpoints: The effects of SEQ ID NO:1 and Intron A on tumour growth were determined. Tumour sizes were measured every week from day 7 after the tumour cell inoculation in two dimensions using a caliper, and the volume was expressed in mm^3 using the formula: V=0.5 a×b^2, where a and b are the long and short diameters of the tumour, respectively. Mean tumour volumes calculated from each measurement were then plotted in a standard graph to compare the anti-tumour efficacy to that of controls. A day after the last treatment, tumours were excised from the animals and their weights were measured.
A second independent in vivo study was conducted as described in Example 1 utilizing SCID mice (female, 6 weeks old) and Caki-1 (human renal carcinoma cell line) to test the efficacy of SEQ ID NO:1 in combination with IFN alpha Briefly, 5×10^6 Caki-1 human renal carcinoma cells in 0.1 ml of PBS were injected subcutaneously at the right flank of the mice to induce tumour growth. Treatments started on the seventh day after tumour cell injection. […]

[3] = test system: A498 human renal carcinoma; assay: A498 renal tumour xenograft in SCID mice, SEQ ID NO:1 and interferon alpha
Experimental: as §1, with “line:” for “Line:”, “(A498)” for “(Caki-1)”, “(FBS),” for “(FEBS),”, “L-alanyl-1-glutamine” for “L-alanyl-L-glutamine”
as §2, with “subcutaneously” for “subcutaneously (s.c.)”, “9×10^6 A498” for “5×10^6 Caki-1”
Dose Preparation and Treatment: The dose for SEQ ID NO:1 was formulated using the following procedure. From a concentrated stock solution (usually prepared in ddH2O at a concentration of 50 mg/ml and kept at −80° C.), SEQ ID NO:1 was diluted with saline to achieve a final target concentration of 1 or 2.5 mg/ml on the first day of dosing. Enough SEQ ID NO:1 was diluted so that the compound could be administered by bolus infusion into the tail vein every other day for the duration of the experiment. Recombinant interferon alfa-2b (ntron A™) was employed according to the dose and treatment schedules below. The treatments were started 20 days after the tumour cell inoculation when the tumour size reached an approximate volume of 200 mm^3. Each treatment group contained 10 tumour-bearing mice. Routes of administration are as follows: intravenous (i.v.) and intratumoural (i.t.).
• 1. Saline treated group-1: saline 0.1 ml/mouse/48 hours, i.v., n=10 • 2. Saline treated group-2: saline 0.05 ml/mouse/5 days/week, i.t., n=10 • 3. SEQ ID NO:1 treated group: 1 mg/kg/48 hours in 0.1 ml saline, i.v. n=10 • 4. SEQ ID NO:1 treated group: 2.5 mg/kg/48 hours in 0.1 ml saline, i.v., n=10 • 5. […]
Treatment started from day 20 after inoculation of human renal tumour cells. […]
as §3, with “growth was” for “growth were”, “day 20” for “day 7”, “measured. […]” for “measured.”

| Molecule | Tumour weight as % of saline control [1] | anti-tumour efficacy (tumour volume, tumour weight) ([2]; Example 2, SEQ ID NO:1 1 or 2.5 mg/kg/48 hours i.v., Intron A 10^3 or 10^5 unit 5 days/week i.t.) | anti-tumour efficacy (tumour volume, tumour weight) ([2]; Example 3, SEQ ID NO:1 2.5 or 5 mg/kg every 2 days i.v., Intron 10^5 unit 5 days/week i.t.) | anti-tumour efficacy (tumour volume, tumour weight) ([2]; Example 4, oligonucleotide 2.5 mg/kg every 2 days i.v., Intron A 10^5 unit 5 days/week i.t.) | efficacy in combination with SEQ ID NO:1, subcutaneous versus intratumoural ([2]; Example 5, SEQ ID NO:1 2.5 mg/kg/2 days i.v. plus 100000 units Intron A x3/week s.c. or i.t.) | anti-tumour efficacy (tumour volume, tumour weight) ([3]; Example 6, SEQ ID NO:1 1 or 2.5 mg/kg/48 hours i.v., Intron A 10^3 or 10^5 unit 5 days/week i.t.) | anti-tumour efficacy (tumour volume, tumour weight) ([3]; Example 7, SEQ ID NO:1 2.5 mg/kg/2ds i.v., 10000 units Intron A x5/week for 2 weeks i.t.) |
| --- | --- | --- | --- | --- | --- | --- | --- |
| O=c1[nH]cc(F)c(=O)[nH]1 [5-FU, 5-fluorouracil, reference compound] | 52% | – | – | – | – | – | – |
| Recombinant interferon alfa-2b [Intron A] | – | significant anti-tumour efficacy | significant anti-tumour efficacy | significant anti-tumour efficacy | equally effective | significant anti-tumour efficacy | significant anti-tumour efficacy |
